In US20070015739A1, “Use of non-antibacterial tetracycline formulations for inhibiting bacterial spores” (priority 2005, published 2007):
“Also recorded” adds a separate entry of the source. Like-named read-outs stand apart in the source and are kept apart here.

What was measured:
B. anthracis spores = settings: guinea pig, in vivo; cited from earlier work
[1] = test system: spores (Bacillus cereus ATCC 10987); format: cell-based
[2] = test system: Bacillus cereus ATCC 10987 spores; format: cell-based
[3] = Plasma or serum concentration in humans; settings: dose of about 10 to about 20 mg/day

Row | Structure (SMILES) | death of infected animals during treatment (B. anthracis spores) | early germination (Gram stain) [1] | minimum concentration to inhibit outgrowth [1] | outgrowth into vegetative cells [1] | development of spores into vegetative cells (Gram stain) ([1]; time=40 min) | development of spores into vegetative cells (Gram stain) ([1]; time=60 min) | rate of decrease in absorbance in the presence and absence of COL-3 [2] | inhibition of the early phase (initial stages) of germination ([2]; 37° C.) | plasma or serum concentrations [3]
1 | CN(C)[C@@H]1C(O)=C(C(N)=O)C(=O)[C@@]2(O)C(O)=C3C(=O)c4c(O)cccc4[C@@](C)(O)[C@H]3C[C@@H]12 [tetracycline] | prevented death | – | – | – | – | – | – | – | –
2 | NC(=O)C1=C(O)C[C@@H]2C[C@@H]3Cc4cccc(O)c4C(=O)C3=C(O)[C@]2(O)C1=O [COL-3, 6-demethyl-6-deoxy-4-de(dimethylamino)tetracycline] | – | occurred in both the presence and absence of COL-3 | 1 μg per ml | inhibited | no further development | do not develop | not significantly different | did not inhibit; also recorded: no effect | about 1.0 μg/ml
